Laboratory results published in publication PMC9921564, “Novel Indole-Containing Hybrids Derived from Millepachine: Synthesis, Biological Evaluation and Antitumor Mechanism Study” (Molecules, 2023).

Legend:
[1] = system: HCT-8/VCR (HCT-8 cell line resistant to vincristine); test: CCK-8 cytotoxicity, HCT-8/VCR; format: cell-based; conditions: Homo sapiens, 48 h, CCK-8, vincristine-resistant, read-out: IC50, Mean ± SE, HCT-8/VCR
Procedure: (§1) Besides the high cytotoxicity, drug resistance is the other limiting factor of chemotherapeutics. In this study, the cytotoxicities of compound 14b towards five kinds of drug-resistant cancer cell lines were also evaluated. Except three kinds of cell lines that are resistant to three drugs commonly used in clinical practice, two kinds of cell lines that are resistant to MTAs were also evaluated.
(§2) A549 (non-small-cell-lung cancer cell line), Caski (human epithelial cervical cancer cell line), HepG2 (human liver carcinoma cell line), MCF-7 (human breast carcinoma cell line), C42B (human prostate cancer line C42B), L-02 (human normal hepatocytes), RWPE-1 (human prostate epithelial cells) and MCF-10A (human normal mammary epithelial cells) were obtained from National Collection of Authenticated Cell Cultures (Shanghai, China). […]
(§3) After 24 h, the medium containing different concentrations of tested compounds were added for another 48 h. […] The optical density was recorded with a microplate reader at 570 nm (Thermo Scientific, Varioskan LUX). All the experiments were repeated independently at least three times and the IC50 values were calculated […]

[2] = system: C42B/ENZR (C42b cell line resistant to Enzalutamide); test: CCK-8 cytotoxicity, C42B/ENZR; format: cell-based; conditions: Homo sapiens; 48 h, CCK-8, Enzalutamide-resistant; read-out: IC50, Mean ± SE, C42B/ENZR
Procedure: as §1, §2, §3
The fluorescence intensity enhancement (emission wavelength is 410 nm, excitation wavelength is 340 nm) was recorded every 60 s for 60 min in a multifunction microplate reader (Molecular Devices, Flex Station 3). […]

tubulin = target: T1, tubulin (Sus scrofa, UniProt P02554); test: in vitro tubulin polymerization inhibition assay; format: biochemical
T1 construct: purchased cytoskeleton, Inc. BK011P
Procedure: (§4) Tubulin–microtubule homeostasis is crucial for cell mitosis.
(§5) Figure 2 Effect of compound 14b on tubulin. […] The experiments were performed at least three times, and representative images are shown. Scale bars are 10 μm. […] The backbone of tubulin is shown in ribbon representation (α-tubulin, yellow; β-tubulin, green). […] The data were shown as mean ± SE (standard error) of at least three independent experiments.
(§6) S Ⅳ. Biological evaluation methods
(§7) The cells grown in logarithmical phase were seeded in 96-well plates with the density of 5×10^3/well.
(§8) After 24 h, the medium containing different concentrations of tested compounds were added for another 48 h. Then, CCK-8 reagents were added to cells and continued to culture for 2 h. The optical density was recorded with a microplate reader at 570 nm (Thermo Scientific, Varioskan LUX). All the experiments were repeated independently at least three times and the IC50 values were calculated […]
(§9) S2. In vitro tubulin polymerization inhibition assay
(§10) The in vitro tubulin polymerization inhibition assay was conducted according to the manufacturer ’s instruction (cytoskeleton, cat. no. BK011P). Briefly, 5 μL of the tested compounds at the indicated

A549 cells = test: intracellular microtubule morphology by immunofluorescence; format: cell-based, human; conditions: A549, 10, 20 and 50 nM, 12 h
Procedure: as §4, §5, §6, §7, §8, §9, §10

[3] = system: A2780 (human ovarian cancer cell line); test: CCK-8 cytotoxicity, A2780; format: cell-based; conditions: 48 h, read-out: IC50, Mean ± SE, A2780
Procedure: as §1, §2, §3

[4] = system: MCF-7 (human breast carcinoma cell line); test: CCK-8 antiproliferative assay, MCF-7; format: cell-based; conditions: MCF7, 48 h, read-out: IC50, Mean ± SE, MCF-7
[5] = system: A2780/TAX (A2780 cell line resistant to taxol); test: CCK-8 cytotoxicity, A2780/TAX; format: cell-based; conditions: Homo sapiens, 48 h, CCK-8, taxol-resistant, read-out: IC50, Mean ± SE, A2780/TAX
Procedure: as §1, §2, §3

T1 sequence (P02554 whole entry): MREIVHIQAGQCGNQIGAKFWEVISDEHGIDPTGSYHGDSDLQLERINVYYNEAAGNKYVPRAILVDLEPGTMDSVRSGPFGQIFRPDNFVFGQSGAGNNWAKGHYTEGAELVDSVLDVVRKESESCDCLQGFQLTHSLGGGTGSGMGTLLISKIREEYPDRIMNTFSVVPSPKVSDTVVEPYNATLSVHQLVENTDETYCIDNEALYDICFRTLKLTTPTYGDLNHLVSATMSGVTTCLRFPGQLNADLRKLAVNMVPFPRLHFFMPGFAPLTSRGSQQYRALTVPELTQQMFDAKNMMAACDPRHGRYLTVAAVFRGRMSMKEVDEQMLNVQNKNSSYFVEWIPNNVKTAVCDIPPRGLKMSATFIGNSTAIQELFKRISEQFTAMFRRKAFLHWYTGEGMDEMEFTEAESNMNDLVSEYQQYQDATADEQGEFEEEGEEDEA
T1 sequence (P02550 whole entry partner): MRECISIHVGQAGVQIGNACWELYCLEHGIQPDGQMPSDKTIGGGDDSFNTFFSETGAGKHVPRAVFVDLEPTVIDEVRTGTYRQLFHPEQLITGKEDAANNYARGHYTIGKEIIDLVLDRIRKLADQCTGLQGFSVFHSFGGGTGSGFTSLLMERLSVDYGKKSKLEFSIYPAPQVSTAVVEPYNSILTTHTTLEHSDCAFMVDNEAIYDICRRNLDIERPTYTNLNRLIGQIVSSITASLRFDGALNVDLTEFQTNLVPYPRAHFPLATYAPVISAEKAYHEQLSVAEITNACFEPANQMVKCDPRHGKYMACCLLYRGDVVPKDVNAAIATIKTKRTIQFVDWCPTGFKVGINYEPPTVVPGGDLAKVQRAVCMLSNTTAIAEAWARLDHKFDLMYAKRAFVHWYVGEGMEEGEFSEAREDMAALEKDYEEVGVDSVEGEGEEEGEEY

COc1ccc(C(=O)c2ccc3c(ccn3C)c2)c2c1C=CC(C)(C)O2 [compound 14b, (5-methoxy-2,2-dimethyl-2H-chromen-8-yl)(1-methyl-1H-indol-5-yl)methanone]
IC50 [1]: 122 ± 36 nM
IC50 [2]: 42 ± 11 nM
effect on tubulin polymerization (tubulin; 5 μM, Figure 2A,B): inhibited tubulin polymerization in a colchicine-like manner
IC50 (tubulin; in vitro, area under the curve): 2070 ± 150 nM
intracellular tubulin-microtubule homeostasis (A549 cells): heavily disturbed
IC50 [3]: 36 ± 4 nM
IC50 [4]: 27 ± 6 nM
IC50 [5]: 42 ± 11 nM
